| Structure (SMILES) | melting point [°C] |
| --- | --- |
| Clc1cccc(Cl)c1Nc1nc(-c2nc3cc(Br)ccc3[nH]2)cs1 [Example 74] | 267 to 268 |
| O=C(Nc1ccc(C(F)(F)F)cc1)c1csc(Nc2ncccc2Cl)n1 [Example 75] | 186 to 187 |
| O=C(Nc1ccc(Br)cc1)c1csc(Nc2ncccc2Cl)n1 [Example 76] | 226 to 258 |
| O=C(Nc1ccc(Br)cc1)c1coc(Cc2c(Cl)cccc2Cl)n1 [Example 78] | 164 to 165 |

— US20040157845A1, “Vanilloid receptor ligands and their use in treatments” (Amgen Inc., priority 2003, published 2004)
